Like-named read-outs stand apart in the source and are kept apart here.

Holding throughout (assay type): cell-based
One data set has as its target NaV1.5 (Homo sapiens (Human), UniProt Q14524). The experiment in a line: Patch voltage clamp electrophysiology (EP), affinity for the inactivated state of Nav1.5. As for the experimental part:
Patch voltage clamp electrophysiology allows for the direct measurement and quantification of block of voltage-gated sodium channels (Nav's), and allows the determination of the time- and voltage-dependence of block which has been interpreted as differential binding to the resting, open, and inactivated states of the sodium channel (Hille, B., Journal of General Physiology (1977), 69: 497-515).
(§1) The following patch voltage clamp electrophysiology studies were performed on representative compounds of the invention using human embryonic kidney cells (HEK), permanently transfected with an expression vector containing the full-length cDNA coding for the desired human sodium channel α-subunit, grown in culture media containing 10% FBS, 1% PSG, and 0.5 mg/mL G418 at 37° C. with 5% CO2. […] Nav1.7 and Nav1.5 cDNAs (NM_002977 and AC137587; SCN5A, respectively) were stably expressed in HEK-293 cells. The β1 subunit was coexpressed only in the Nav1.7 cell line.
(§2) Sodium currents were measured using the patch clamp technique in the whole-cell configuration using either a PatchXpress automated voltage clamp or manually using an Axopatch 200B (Axon Instruments) or Model 2400 (A-M systems) amplifier. […] The pipette was filled with a solution comprised of: 5 mM NaCl, 10 mM CsCl, 120 mM CsF, 0.1 mM CaCl2, 2 mM MgCl2, 10 mM HEPES, 10 mM EGTA; and adjusted to pH 7.2 with CsOH. The external solution had the following composition: 140 mM NaCl, 5 mM KCl, 2 mM CaCl2, 1 mM MgCl2, 10 mM HEPES; and adjusted to pH 7.4 with NaOH. In some studies, the external sodium was reduced by equimolar replacement with choline. Osmolarity in the CsF internal and NaCl external solutions was adjusted to 300 mOsm/kg and 310 mOsm/kg with glucose, respectively. All recordings were performed at ambient temperature in a bath chamber with a volume of 150 μL. Control sodium currents were measured in 0.5% DMSO. Controls and representative compounds of the invention were applied to the recording chamber through a 4-pinch or 8-pinch valve bath perfusion system manufactured by ALA Scientific Instruments.
Currents were recorded at 40 kHz sampling frequency, filtered at […], and stored using a Digidata-1322A analogue/digital interface with the pClamp software (Axon Instruments). Series resistance compensation was applied (60-80%). […] All statistics in this study are given as mean±SD.
(§3) The membrane potential was maintained at a voltage where inactivation of the channel is complete (which was −60 mV for both Nav1.7 and Nav1.5). The voltage is then stepped back to a very negative (Vhold=−150 mV) voltage for 20 ms and then a test pulse is applied to quantify the compound block. […] The percent decrease in sodium current following wash-on of compound was taken as the percent block of sodium channels.
(§4) The Example numbers provided in Table 1 and Table 2 correspond to the Examples herein: […]

Data set [1] deals with T1, NaV1.7 (Homo sapiens (Human), UniProt Q15858). The experiment in a line: Patch voltage clamp electrophysiology (EP), affinity for the inactivated state of Nav1.7. Particulars: HEK-293 cells expressing human Nav1.7 with β1 subunit. How it is done:
as §1, §2
Series resistance compensation was applied (60-80%). […] All statistics in this study are given as mean±SD.
as §3, §4

The target in data set [2] is T1, NaV1.7. The experiment in a line: NaV flux assay, inhibition of NaV1.7. The settings on record: NaV flux data, included when EP data is not available.
Where [3] appears, read: HEK-293 cells expressing human Nav1.5, read-out: NaV1.5 IC50.
Setting [4] is: HEK-293 cells expressing human Nav1.5, read-out: NaV1.5 IC50(μM) (class).

T1 sequence (Q15858 other isoform, or with tags, fused parts or gaps): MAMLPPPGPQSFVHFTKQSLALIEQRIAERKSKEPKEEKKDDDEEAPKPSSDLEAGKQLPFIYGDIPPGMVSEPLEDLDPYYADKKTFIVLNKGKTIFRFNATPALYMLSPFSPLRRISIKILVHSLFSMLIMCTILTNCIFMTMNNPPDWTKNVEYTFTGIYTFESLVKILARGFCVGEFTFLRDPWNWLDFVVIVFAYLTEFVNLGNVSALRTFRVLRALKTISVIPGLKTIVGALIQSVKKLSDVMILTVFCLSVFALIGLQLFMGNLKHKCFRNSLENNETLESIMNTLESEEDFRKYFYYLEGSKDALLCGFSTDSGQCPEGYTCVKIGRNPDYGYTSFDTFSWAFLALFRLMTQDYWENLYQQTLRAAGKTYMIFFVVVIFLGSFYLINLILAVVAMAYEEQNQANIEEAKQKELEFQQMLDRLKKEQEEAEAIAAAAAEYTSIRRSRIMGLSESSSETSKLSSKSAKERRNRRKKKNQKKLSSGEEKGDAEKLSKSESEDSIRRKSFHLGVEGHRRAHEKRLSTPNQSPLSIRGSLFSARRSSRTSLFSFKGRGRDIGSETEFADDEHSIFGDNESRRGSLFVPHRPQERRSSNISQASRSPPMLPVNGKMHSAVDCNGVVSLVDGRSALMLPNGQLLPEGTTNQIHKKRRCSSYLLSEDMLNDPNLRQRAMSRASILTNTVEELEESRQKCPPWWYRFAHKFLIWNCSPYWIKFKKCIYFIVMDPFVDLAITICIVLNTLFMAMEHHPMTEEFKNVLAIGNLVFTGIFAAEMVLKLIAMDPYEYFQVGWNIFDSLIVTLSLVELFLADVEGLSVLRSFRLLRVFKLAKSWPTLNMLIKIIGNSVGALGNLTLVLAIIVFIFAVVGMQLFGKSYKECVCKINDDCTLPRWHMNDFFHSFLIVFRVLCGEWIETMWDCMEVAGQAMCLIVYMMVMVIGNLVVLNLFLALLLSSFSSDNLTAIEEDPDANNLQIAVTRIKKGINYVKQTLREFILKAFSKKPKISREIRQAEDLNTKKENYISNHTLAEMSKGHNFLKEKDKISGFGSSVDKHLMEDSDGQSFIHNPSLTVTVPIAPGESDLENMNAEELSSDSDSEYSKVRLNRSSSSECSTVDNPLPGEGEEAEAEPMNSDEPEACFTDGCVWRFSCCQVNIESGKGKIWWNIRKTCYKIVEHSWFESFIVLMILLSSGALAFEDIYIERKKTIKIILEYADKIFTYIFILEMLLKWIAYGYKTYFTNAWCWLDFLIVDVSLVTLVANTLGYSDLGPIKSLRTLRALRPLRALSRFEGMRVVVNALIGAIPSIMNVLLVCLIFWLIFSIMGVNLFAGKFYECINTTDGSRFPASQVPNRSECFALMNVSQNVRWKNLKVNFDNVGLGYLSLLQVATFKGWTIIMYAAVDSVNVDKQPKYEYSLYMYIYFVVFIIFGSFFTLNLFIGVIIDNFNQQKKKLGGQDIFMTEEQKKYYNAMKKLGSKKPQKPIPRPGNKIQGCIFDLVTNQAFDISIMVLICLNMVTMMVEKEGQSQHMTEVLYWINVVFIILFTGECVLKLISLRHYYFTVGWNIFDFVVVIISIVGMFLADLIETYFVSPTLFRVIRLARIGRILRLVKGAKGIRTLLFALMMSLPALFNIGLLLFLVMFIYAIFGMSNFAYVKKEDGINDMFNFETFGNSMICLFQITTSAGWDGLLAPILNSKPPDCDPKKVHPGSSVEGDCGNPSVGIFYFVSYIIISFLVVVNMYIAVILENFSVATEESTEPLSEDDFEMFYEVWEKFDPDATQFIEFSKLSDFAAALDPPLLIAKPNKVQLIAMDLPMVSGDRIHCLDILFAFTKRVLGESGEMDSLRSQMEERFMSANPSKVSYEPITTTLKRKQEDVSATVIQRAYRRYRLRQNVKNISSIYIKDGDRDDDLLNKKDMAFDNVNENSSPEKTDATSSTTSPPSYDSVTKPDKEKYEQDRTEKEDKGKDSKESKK
T1 sequence (Q07699 19-218 partner): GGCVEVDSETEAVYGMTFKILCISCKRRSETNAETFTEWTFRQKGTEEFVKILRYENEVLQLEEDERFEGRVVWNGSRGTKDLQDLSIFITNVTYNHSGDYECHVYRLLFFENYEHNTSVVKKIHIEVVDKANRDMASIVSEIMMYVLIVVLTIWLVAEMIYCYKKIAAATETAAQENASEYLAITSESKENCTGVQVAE
Chain of NaV1.5 (Q14524 whole entry): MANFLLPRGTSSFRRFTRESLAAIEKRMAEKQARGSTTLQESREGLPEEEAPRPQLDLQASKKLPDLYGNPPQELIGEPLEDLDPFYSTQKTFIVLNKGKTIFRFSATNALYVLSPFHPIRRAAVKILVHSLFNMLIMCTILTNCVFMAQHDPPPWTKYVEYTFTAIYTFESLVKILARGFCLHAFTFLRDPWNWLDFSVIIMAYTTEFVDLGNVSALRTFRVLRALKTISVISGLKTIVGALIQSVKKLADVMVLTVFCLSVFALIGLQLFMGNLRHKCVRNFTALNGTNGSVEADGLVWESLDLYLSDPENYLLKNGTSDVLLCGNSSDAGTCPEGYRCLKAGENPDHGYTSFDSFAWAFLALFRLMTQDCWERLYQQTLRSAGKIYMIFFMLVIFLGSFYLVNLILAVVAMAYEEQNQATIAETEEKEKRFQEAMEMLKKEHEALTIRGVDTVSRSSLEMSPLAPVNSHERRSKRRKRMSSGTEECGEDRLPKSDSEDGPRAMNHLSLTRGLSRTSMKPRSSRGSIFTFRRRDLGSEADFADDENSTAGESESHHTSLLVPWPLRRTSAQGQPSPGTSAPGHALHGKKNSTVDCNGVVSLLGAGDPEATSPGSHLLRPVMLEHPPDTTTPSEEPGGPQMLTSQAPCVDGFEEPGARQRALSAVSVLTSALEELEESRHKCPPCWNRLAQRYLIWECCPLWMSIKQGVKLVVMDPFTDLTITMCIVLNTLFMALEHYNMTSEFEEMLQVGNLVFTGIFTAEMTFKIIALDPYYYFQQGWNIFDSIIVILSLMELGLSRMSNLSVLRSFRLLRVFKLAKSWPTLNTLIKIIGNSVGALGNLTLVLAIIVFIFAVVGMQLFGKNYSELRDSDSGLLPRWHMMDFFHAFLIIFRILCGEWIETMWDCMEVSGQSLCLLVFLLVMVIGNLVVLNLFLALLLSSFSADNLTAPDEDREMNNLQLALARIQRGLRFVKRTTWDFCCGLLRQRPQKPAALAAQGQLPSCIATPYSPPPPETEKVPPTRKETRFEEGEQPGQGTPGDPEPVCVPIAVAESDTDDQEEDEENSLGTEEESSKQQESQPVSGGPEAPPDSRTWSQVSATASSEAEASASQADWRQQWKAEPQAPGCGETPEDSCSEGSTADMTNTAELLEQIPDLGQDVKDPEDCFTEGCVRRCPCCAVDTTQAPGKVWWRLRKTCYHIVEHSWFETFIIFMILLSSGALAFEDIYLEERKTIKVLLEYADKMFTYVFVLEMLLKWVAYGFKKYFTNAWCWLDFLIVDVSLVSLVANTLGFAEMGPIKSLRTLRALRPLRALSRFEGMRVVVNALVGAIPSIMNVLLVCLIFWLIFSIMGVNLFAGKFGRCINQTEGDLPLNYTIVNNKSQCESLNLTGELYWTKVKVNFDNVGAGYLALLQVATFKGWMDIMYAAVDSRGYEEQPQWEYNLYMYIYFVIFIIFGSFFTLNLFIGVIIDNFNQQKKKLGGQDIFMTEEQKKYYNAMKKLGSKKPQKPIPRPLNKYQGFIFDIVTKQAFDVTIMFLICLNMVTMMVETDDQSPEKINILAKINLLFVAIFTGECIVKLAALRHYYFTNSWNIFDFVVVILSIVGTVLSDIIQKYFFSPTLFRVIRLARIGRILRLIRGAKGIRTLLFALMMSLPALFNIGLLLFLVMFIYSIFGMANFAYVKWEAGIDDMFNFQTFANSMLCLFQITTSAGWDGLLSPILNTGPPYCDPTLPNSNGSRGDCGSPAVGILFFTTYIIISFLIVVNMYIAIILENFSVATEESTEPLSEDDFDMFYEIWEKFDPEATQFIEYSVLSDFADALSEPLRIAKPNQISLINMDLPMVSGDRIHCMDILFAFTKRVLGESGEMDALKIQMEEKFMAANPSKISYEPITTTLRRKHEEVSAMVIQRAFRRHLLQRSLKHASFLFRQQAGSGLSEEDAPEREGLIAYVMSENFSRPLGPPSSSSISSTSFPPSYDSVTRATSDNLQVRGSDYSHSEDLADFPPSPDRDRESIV

Take `CN1CC[C@H](c2ccc(Cl)cc2)[C@@H](COc2cc(F)c(S(=O)(=O)Nc3ncns3)cc2F)C1` [Example 85, 4-(((3R,4S)-4-(4-chlorophenyl)-1-methylpiperidin-3-yl)methoxy)-2,5-difluoro-N-(1,2,4-thiadiazol-5-yl)benzenesulfonamide]: the IC50 was greater than 10 µM on NaV1.5 (setting [3]), greater than 10 µM on NaV1.5 (setting [4]), less than 0.1 µM at NaV1.7 [1] (read-out: NaV1.7 (IC50 class)) and 0.0048 µM on NaV1.7 [1] (read-out: NaV1.7 IC50).

`N#Cc1cc(S(=O)(=O)NC2(C#N)CC2)ccc1OC[C@@H]1CNCC[C@H]1c1ccc(Cl)cc1` (relative stereo) [Example 91, 4-((trans-4-(4-chlorophenyl)piperidin-3-yl)methoxy)-3-cyano-N-(1-cyanocyclopropyl)benzenesulfonamide] displayed an IC50 against NaV1.7 [2] greater than 10 µM.

With `O=C1C[C@@H](c2ccc(F)cc2)[C@H](COc2cc(F)c(S(=O)(=O)Nc3ncns3)cc2F)CN1` (relative stereo) [Example 87, 2,5-difluoro-4-((trans-4-(4-fluorophenyl)-6-oxopiperidin-3-yl)methoxy)-N-(1,2,4-thiadiazol-5-yl)benzenesulfonamide], the IC50 on NaV1.5 (setting [3]) is greater than 10 µM; at NaV1.5 (setting [4]) it was greater than 10 µM; at NaV1.7 [1] (read-out: NaV1.7 (IC50 class)), less than 0.1 µM; at NaV1.7 [1] (read-out: NaV1.7 IC50), 0.082 µM.

Turning to `O=C(NS(=O)(=O)c1cc(F)c(OC[C@@H]2CNCC[C@H]2c2ccc(Cl)cc2)cc1F)c1cccnc1` (relative stereo) [Example 103, N-((4-((trans-4-(4-chlorophenyl)piperidin-3-yl)methoxy)-2,5-difluorophenyl)sulfonyl)nicotinamide], the IC50 against NaV1.7 [2] is greater than 10 µM.

In turn, `NS(=O)(=O)c1cc(F)c(OC[C@@H]2CNCC[C@H]2c2ccc(Cl)cc2)cc1F` (relative stereo) [Example 95, 4-((trans-4-(4-chlorophenyl)piperidin-3-yl)methoxy)-2,5-difluorobenzenesulfonamide] yielded an IC50 against NaV1.7 [2] greater than 10 µM.

On to `O=S(=O)(Nc1ncns1)c1cc(F)c(OC[C@@H]2CNCC[C@H]2c2ccc(F)cc2)cc1F` (relative stereo) [Example 45, 2,5-difluoro-4-((trans-4-(4-fluorophenyl)piperidin-3-yl)methoxy)-N-(1,2,4-thiadiazol-5-yl)benzenesulfonamide], for which the IC50 on NaV1.5 (setting [3]) was greater than 10 µM; on NaV1.5 (setting [4]), greater than 10 µM; on NaV1.7 [1] (read-out: NaV1.7 (IC50 class)), less than 0.1 µM; on NaV1.7 [1] (read-out: NaV1.7 IC50) it was 0.0068 µM.

On to `O=S(=O)(Nc1ncc(Cl)s1)c1cc(F)c(OC[C@@H]2CNCC[C@H]2c2ccc(F)c(F)c2)cc1F` (relative stereo) [Example 61, N-(5-chlorothiazol-2-yl)-4-((trans-4-(3,4-difluorophenyl)piperidin-3-yl)methoxy)-2,5-difluorobenzenesulfonamide], for which the IC50 on NaV1.5 (setting [3]) is greater than 10 µM; at NaV1.5 (setting [4]), greater than 10 µM; on NaV1.7 [1] (read-out: NaV1.7 (IC50 class)) it was less than 0.1 µM; at NaV1.7 [1] (read-out: NaV1.7 IC50) it was 0.0216 µM.

On NaV1.7 [2], `O=C1C[C@@H](c2cc(F)c(F)cc2F)[C@H](COc2cc(F)c(S(=O)(=O)Nc3ncns3)cc2F)CN1` (relative stereo) [Example 101, 2,5-difluoro-4-((trans-6-oxo-4-(2,4,5-trifluorophenyl)piperidin-3-yl)methoxy)-N-(1,2,4-thiadiazol-5-yl)benzenesulfonamide] registered an IC50 of 4.49 µM.

Consider `N#Cc1cc(S(=O)(=O)Nc2ncns2)ccc1OC[C@@H]1CNCC[C@H]1c1ccc(Cl)cc1` (relative stereo) [Example 58, 4-((trans-4-(4-chlorophenyl)piperidin-3-yl)methoxy)-3-cyano-N-(1,2,4-thiadiazol-5-yl)benzenesulfonamide], for which the IC50 on NaV1.5 (setting [3]) is greater than 10 µM; at NaV1.5 (setting [4]) it was greater than 10 µM; at NaV1.7 [1] (read-out: NaV1.7 (IC50 class)), less than 0.1 µM; on NaV1.7 [1] (read-out: NaV1.7 IC50), 0.0033 µM.

`CN1CC[C@@H](c2ccc(Cl)cc2)[C@H](COc2cc(F)c(S(=O)(=O)Nc3ncns3)cc2F)C1` (relative stereo) [Example 70, 4-((trans-4-(4-chlorophenyl)-1-methylpiperidin-3-yl)methoxy)-2,5-difluoro-N-(1,2,4-thiadiazol-5-yl)benzenesulfonamide]: the IC50 on NaV1.5 (setting [3]) was greater than 10 µM; at NaV1.5 (setting [4]), greater than 10 µM; on NaV1.7 [1] (read-out: NaV1.7 (IC50 class)), less than 0.1 µM; at NaV1.7 [1] (read-out: NaV1.7 IC50) it was 0.012 µM.

At NaV1.7 [2], `CC(C)NC(=O)NS(=O)(=O)c1cc(F)c(OC[C@@H]2CNCC[C@H]2c2ccc(Cl)cc2)cc1F` (relative stereo) [Example 105, 4-((trans-4-(4-chlorophenyl)piperidin-3-yl)methoxy)-2,5-difluoro-N-(isopropylcarbamoyl)benzenesulfonamide] gave an IC50 greater than 10 µM.

`O=C(NS(=O)(=O)c1cc(F)c(OC[C@@H]2CNCC[C@H]2c2ccc(Cl)cc2)cc1F)c1ccccc1` (relative stereo) [Example 104, N-((4-((trans-4-(4-chlorophenyl)piperidin-3-yl)methoxy)-2,5-difluorophenyl)sulfonyl)benzamide] came in with an IC50 at NaV1.7 [2] greater than 10 µM.

In turn, `CC(=O)NS(=O)(=O)c1cc(F)c(OC[C@@H]2CNCC[C@H]2c2ccc(Cl)cc2)cc1F` (relative stereo) [Example 102, N-((4-((trans-4-(4-chlorophenyl)piperidin-3-yl)methoxy)-2,5-difluorophenyl)sulfonyl)acetamide] displayed an IC50 on NaV1.7 [2] greater than 10 µM.

On to `O=S(=O)(Nc1ncns1)c1cc(F)c(OC[C@@H]2CN(CC(F)(F)F)CC[C@H]2c2ccc(Cl)cc2)cc1F` (relative stereo) [Example 88, 4-((trans-4-(4-chlorophenyl)-1-(2,2,2-trifluoroethyl)piperidin-3-yl)methoxy)-2,5-difluoro-N-(1,2,4-thiadiazol-5-yl)benzenesulfonamide], for which the IC50 was greater than 10 µM on NaV1.5 (setting [3]), greater than 10 µM on NaV1.5 (setting [4]), 0.1 to 1 µM on NaV1.7 [1] (read-out: NaV1.7 (IC50 class)) and 0.13 µM on NaV1.7 [1] (read-out: NaV1.7 IC50).

Consider `O=S(=O)(Nc1ncns1)c1cc(F)c(OCC2(F)CNCCC2c2ccc(F)cc2)cc1F` (stereo not shown) [Example 47, 2,5-difluoro-4-((3-fluoro-4-(4-fluorophenyl)piperidin-3-yl)methoxy)-N-(1,2,4-thiadiazol-5-yl)benzenesulfonamide], for which the IC50 at NaV1.5 (setting [3]) was greater than 10 µM; on NaV1.5 (setting [4]), greater than 10 µM; on NaV1.7 [1] (read-out: NaV1.7 (IC50 class)) it was less than 0.1 µM; at NaV1.7 [1] (read-out: NaV1.7 IC50) it was 0.0507 µM.

In the case of `NC(=O)N1CC[C@@H](c2ccc(F)c(F)c2)[C@H](COc2cc(F)c(S(=O)(=O)Nc3ncc(Cl)s3)cc2F)C1` (relative stereo) [Example 89, trans-3-((4-(N-(5-chlorothiazol-2-yl)sulfamoyl)-2,5-difluorophenoxy)methyl)-4-(3,4-difluorophenyl)piperidine-1-carboxamide], the IC50 is greater than 10 µM on NaV1.5 (setting [3]), greater than 10 µM at NaV1.5 (setting [4]), 0.1 to 1 µM at NaV1.7 [1] (read-out: NaV1.7 (IC50 class)) and 0.436 µM on NaV1.7 [1] (read-out: NaV1.7 IC50).

Take `CN1CC[C@@H](c2ccc(Cl)cc2)[C@H](COc2cc(F)c(S(=O)(=O)Nc3ncns3)cc2F)C1` [Example 86, 4-(((3S,4R)-4-(4-chlorophenyl)-1-methylpiperidin-3-yl)methoxy)-2,5-difluoro-N-(1,2,4-thiadiazol-5-yl)benzenesulfonamide]: the IC50 on NaV1.5 (setting [3]) is greater than 10 µM; at NaV1.5 (setting [4]) it was greater than 10 µM; at NaV1.7 [1] (read-out: NaV1.7 (IC50 class)), 0.1 to 1 µM; on NaV1.7 [1] (read-out: NaV1.7 IC50), 0.331 µM.

In turn, `CC(C)NS(=O)(=O)c1ccc(OC[C@@H]2CNCC[C@H]2c2ccc(Cl)cc2)c(C#N)c1` (relative stereo) [Example 90, 4-((trans-4-(4-chlorophenyl)piperidin-3-yl)methoxy)-3-cyano-N-isopropylbenzenesulfonamide] came in with an IC50 at NaV1.7 [2] greater than 10 µM.

Consider `N#Cc1cc(S(=O)(=O)NCC(F)(F)F)ccc1OC[C@@H]1CNCC[C@H]1c1ccc(Cl)cc1` (relative stereo) [Example 93, 4-((trans-4-(4-chlorophenyl)piperidin-3-yl)methoxy)-3-cyano-N-(2,2,2-trifluoroethyl)benzenesulfonamide], for which the IC50 on NaV1.7 [2] is greater than 10 µM.

Usually IC50 stands for the midpoint of a concentration-inhibition curve.

(Values after patent US9630929B2, “Benzenesulfonamide compounds and their use as therapeutic agents” (XENON PHARMACEUTICALS INC., priority 2011, dated 2017).)
